Measured values from ChEMBL document CHEMBL3044636, “Effectiveness of five insecticides for the control of adults and young stages of Cacopsylla melanoneura (Förster) (Hemiptera: Psyllidae) in a semi-field trial” (2010).
Calls of active or inactive are those of the source. The calls are words filed in the database; no cut-off is given here.

Columns and labels:
Cacopsylla melanoneura [1] = experiment: Insecticidal activity against young stage of Cacopsylla melanoneura in apple plant assessed as mortality at 300 g/ha treated for 14 days measured after 7 days relative to control; type: functional
Cacopsylla melanoneura [2] = experiment: Insecticidal activity against adult of Cacopsylla melanoneura in apple plant assessed as reduction of progeny per female at 300 g/ha treated for 1 hr measured after 7 days; type: functional, organism-based
Cacopsylla melanoneura [3] = experiment: Insecticidal activity against adult of Cacopsylla melanoneura in apple plant assessed as reduction of progeny per female at 300 g/ha treated for 14 days measured after 7 days; type: functional, organism-based
Cacopsylla melanoneura [4] = experiment: Insecticidal activity against adult of Cacopsylla melanoneura in apple plant assessed as overwintered female mortality at 300 g/ha treated for 1 hr measured after 1 day relative to control; type: functional
Cacopsylla melanoneura [5] = experiment: Insecticidal activity against adult of Cacopsylla melanoneura in apple plant assessed as overwintered female mortality at 300 g/ha treated for 1 hr measured after 3 days relative to control; type: functional
Cacopsylla melanoneura [6] = experiment: Insecticidal activity against adult of Cacopsylla melanoneura in apple plant assessed as overwintered female mortality at 300 g/ha treated for 7 days measured after 1 day relative to control; type: functional
Cacopsylla melanoneura [7] = experiment: Insecticidal activity against young stage of Cacopsylla melanoneura in apple plant assessed as mortality at 300 g/ha treated for 7 days measured after 7 days relative to control; type: functional
Cacopsylla melanoneura [8] = experiment: Insecticidal activity against adult of Cacopsylla melanoneura in apple plant assessed as overwintered female mortality at 300 g/ha treated for 14 days measured after 1 day relative to control; type: functional
Cacopsylla melanoneura [9] = experiment: Insecticidal activity against young stage of Cacopsylla melanoneura in apple plant assessed as mortality at 300 g/ha treated for 1 hr measured after 7 days relative to control; type: functional
Cacopsylla melanoneura [10] = experiment: Insecticidal activity against adult of Cacopsylla melanoneura in apple plant assessed as overwintered female mortality at 300 g/ha treated for 14 days measured after 3 days relative to control; type: functional
Cacopsylla melanoneura [11] = experiment: Insecticidal activity against adult of Cacopsylla melanoneura in apple plant assessed as overwintered female mortality at 300 g/ha treated for 7 days measured after 3 days relative to control; type: functional
Cacopsylla melanoneura [12] = experiment: Insecticidal activity against adult of Cacopsylla melanoneura in apple plant assessed as reduction of progeny per female at 300 g/ha treated for 7 days measured after 7 days; type: functional, organism-based
Cacopsylla melanoneura [13] = experiment: Insecticidal activity against adult of Cacopsylla melanoneura in apple plant assessed as overwintered female mortality at 16.6 g/ha treated for 14 days measured after 1 day relative to control; type: functional
Cacopsylla melanoneura [14] = experiment: Insecticidal activity against young stage of Cacopsylla melanoneura in apple plant assessed as mortality at 16.6 g/ha treated for 1 hr measured after 7 days relative to control; type: functional
Cacopsylla melanoneura [15] = experiment: Insecticidal activity against adult of Cacopsylla melanoneura in apple plant assessed as reduction of progeny per female at 16.6 g/ha treated for 14 days measured after 7 days; type: functional, organism-based
Cacopsylla melanoneura [16] = experiment: Insecticidal activity against adult of Cacopsylla melanoneura in apple plant assessed as overwintered female mortality at 16.6 g/ha treated for 1 hr measured after 3 days relative to control; type: functional
Cacopsylla melanoneura [17] = experiment: Insecticidal activity against adult of Cacopsylla melanoneura in apple plant assessed as reduction of progeny per female at 16.6 g/ha treated for 7 days measured after 7 days; type: functional, organism-based
Cacopsylla melanoneura [18] = experiment: Insecticidal activity against adult of Cacopsylla melanoneura in apple plant assessed as overwintered female mortality at 16.6 g/ha treated for 1 hr measured after 1 day relative to control; type: functional
Cacopsylla melanoneura [19] = experiment: Insecticidal activity against young stage of Cacopsylla melanoneura in apple plant assessed as mortality at 16.6 g/ha treated for 7 days measured after 7 days relative to control; type: functional
Cacopsylla melanoneura [20] = experiment: Insecticidal activity against adult of Cacopsylla melanoneura in apple plant assessed as overwintered female mortality at 16.6 g/ha treated for 7 days measured after 1 day relative to control; type: functional
Cacopsylla melanoneura [21] = experiment: Insecticidal activity against adult of Cacopsylla melanoneura in apple plant assessed as overwintered female mortality at 16.6 g/ha treated for 7 days measured after 3 days relative to control; type: functional
Cacopsylla melanoneura [22] = experiment: Insecticidal activity against young stage of Cacopsylla melanoneura in apple plant assessed as mortality at 16.6 g/ha treated for 14 days measured after 7 days relative to control; type: functional
Cacopsylla melanoneura [23] = experiment: Insecticidal activity against adult of Cacopsylla melanoneura in apple plant assessed as overwintered female mortality at 16.6 g/ha treated for 14 days measured after 3 days relative to control; type: functional
Cacopsylla melanoneura [24] = experiment: Insecticidal activity against adult of Cacopsylla melanoneura in apple plant assessed as reduction of progeny per female at 16.6 g/ha treated for 1 hr measured after 7 days; type: functional, organism-based
Cacopsylla melanoneura [25] = experiment: Insecticidal activity against adult of Cacopsylla melanoneura in apple plant assessed as reduction of progeny per female at 787.5 g/ha treated for 1 hr measured after 7 days; type: functional, organism-based
Cacopsylla melanoneura [26] = experiment: Insecticidal activity against adult of Cacopsylla melanoneura in apple plant assessed as overwintered female mortality at 787.5 g/ha treated for 1 hr measured after 1 day relative to control; type: functional
Cacopsylla melanoneura [27] = experiment: Insecticidal activity against adult of Cacopsylla melanoneura in apple plant assessed as overwintered female mortality at 787.5 g/ha treated for 7 days measured after 3 days relative to control; type: functional
Cacopsylla melanoneura [28] = experiment: Insecticidal activity against adult of Cacopsylla melanoneura in apple plant assessed as overwintered female mortality at 787.5 g/ha treated for 1 hr measured after 3 days relative to control; type: functional
Cacopsylla melanoneura [29] = experiment: Insecticidal activity against adult of Cacopsylla melanoneura in apple plant assessed as reduction of progeny per female at 787.5 g/ha treated for 14 days measured after 7 days; type: functional, organism-based
Cacopsylla melanoneura [30] = experiment: Insecticidal activity against young stage of Cacopsylla melanoneura in apple plant assessed as mortality at 787.5 g/ha treated for 1 hr measured after 7 days relative to control; type: functional
Cacopsylla melanoneura [31] = experiment: Insecticidal activity against adult of Cacopsylla melanoneura in apple plant assessed as overwintered female mortality at 787.5 g/ha treated for 7 days measured after 1 day relative to control; type: functional
Cacopsylla melanoneura [32] = experiment: Insecticidal activity against young stage of Cacopsylla melanoneura in apple plant assessed as mortality at 787.5 g/ha treated for 14 days measured after 7 days relative to control; type: functional
Cacopsylla melanoneura [33] = experiment: Insecticidal activity against adult of Cacopsylla melanoneura in apple plant assessed as overwintered female mortality at 787.5 g/ha treated for 14 days measured after 1 day relative to control; type: functional
Cacopsylla melanoneura [34] = experiment: Insecticidal activity against adult of Cacopsylla melanoneura in apple plant assessed as overwintered female mortality at 787.5 g/ha treated for 14 days measured after 3 days relative to control; type: functional
Cacopsylla melanoneura [35] = experiment: Insecticidal activity against adult of Cacopsylla melanoneura in apple plant assessed as reduction of progeny per female at 787.5 g/ha treated for 7 days measured after 7 days; type: functional, organism-based
Cacopsylla melanoneura [36] = experiment: Insecticidal activity against young stage of Cacopsylla melanoneura in apple plant assessed as mortality at 787.5 g/ha treated for 7 days measured after 7 days relative to control; type: functional

SMILES: O=C(NC(=O)c1c(F)cccc1F)Nc1ccc(Cl)cc1 [DIFLUBENZURON]
- Activity (Cacopsylla melanoneura [1]): 86.7%
- Activity (Cacopsylla melanoneura [2]): Active
- Activity (Cacopsylla melanoneura [3]): Active
- Activity (Cacopsylla melanoneura [4]): 20%
- Activity (Cacopsylla melanoneura [5]): 56.7%
- Activity (Cacopsylla melanoneura [6]): 30%
- Activity (Cacopsylla melanoneura [7]): 100%
- Activity (Cacopsylla melanoneura [8]): 46.7%
- Activity (Cacopsylla melanoneura [9]): 98.3%
- Activity (Cacopsylla melanoneura [10]): 63.3%
- Activity (Cacopsylla melanoneura [11]): 56.7%
- Activity (Cacopsylla melanoneura [12]): Active

SMILES: CC[C@H](C)[C@H]1O[C@]2(C=C[C@@H]1C)C[C@@H]1C[C@@H](C/C=C(\C)[C@@H](O[C@H]3C[C@H](OC)[C@@H](O[C@H]4C[C@H](OC)[C@@H](O)[C@H](C)O4)[C@H](C)O3)[C@@H](C)/C=C/C=C3\CO[C@@H]4[C@H](O)C(C)=C[C@@H](C(=O)O1)[C@]34O)O2.CO[C@H]1C[C@H](O[C@H]2[C@H](C)O[C@@H](O[C@@H]3/C(C)=C/C[C@@H]4C[C@@H](C[C@]5(C=C[C@H](C)[C@@H](C(C)C)O5)O4)OC(=O)[C@@H]4C=C(C)[C@@H](O)[C@H]5OC/C(=C\C=C\[C@@H]3C)[C@]54O)C[C@@H]2OC)O[C@@H](C)[C@@H]1O [ABAMECTIN]
- Activity (Cacopsylla melanoneura [13]): 43.3%
- Activity (Cacopsylla melanoneura [14]): 75%
- Activity (Cacopsylla melanoneura [15]): Active
- Activity (Cacopsylla melanoneura [16]): 36.7%
- Activity (Cacopsylla melanoneura [17]): Active
- Activity (Cacopsylla melanoneura [18]): 33.3%
- Activity (Cacopsylla melanoneura [19]): 95%
- Activity (Cacopsylla melanoneura [20]): 16.7%
- Activity (Cacopsylla melanoneura [21]): 30%
- Activity (Cacopsylla melanoneura [22]): 71.7%
- Activity (Cacopsylla melanoneura [23]): 60%
- Activity (Cacopsylla melanoneura [24]): Active

SMILES: CCOP(=S)(OCC)Oc1nc(Cl)c(Cl)cc1Cl [CHLORPYRIFOS]
- Activity (Cacopsylla melanoneura [25]): Active
- Activity (Cacopsylla melanoneura [26]): 100%
- Activity (Cacopsylla melanoneura [27]): 100%
- Activity (Cacopsylla melanoneura [28]): 100%
- Activity (Cacopsylla melanoneura [29]): Active
- Activity (Cacopsylla melanoneura [30]): 98.3%
- Activity (Cacopsylla melanoneura [31]): 100%
- Activity (Cacopsylla melanoneura [32]): 100%
- Activity (Cacopsylla melanoneura [33]): 93.3%
- Activity (Cacopsylla melanoneura [34]): 93.3%
- Activity (Cacopsylla melanoneura [35]): Active
- Activity (Cacopsylla melanoneura [36]): 100%
